Laboratory results: publication PMC11413854, “Reversible Control of Native GluN2B-Containing NMDA Receptors with Visible Light” (ACS Chemical Neuroscience, 2024)

Test system: cultured cortical neurons at DIV 14
Assay: NMDA excitotoxicity test, neuronal survival by MTT
Assay type: cell-based, mouse
Details: for neuronal survival: 5 µM inhibitor + 100 µM NMDA + 10 µM glycine; for % of survival, Mean: compound 5µM with NMDA 100µM, MTT A(540 nm) normalized to control (100) and NMDA alone (0)
From the text: We first investigated whether OptoNAM-3 could be used in the context of a patho-physiological process related to GluN1/GluN2B receptors. Overactivation of NMDARs induced by tonic exposure to glutamate or NMDA is well-known to trigger neuronal death.[6] GluN1/GluN2B receptors are thought to be the major player of this neurotoxicity, and GluN1/GluN2B antagonists have proven to be potent neuroprotectants in vitro and in vivo.[5],[15] To test the neuroprotective activity of OptoNAM-3 and its photodependence of action, we performed a protocol of excitotoxicity based on exposure to NMDA (100 μM) of cultured cortical neurons at DIV 14,[15] in the presence of OptoNAM-3. […] OptoNAM-3 in the dark, at a concentration of 5 μM, induced, like ifenprodil, an ∼50% increase in cell survival (Figure S4). […] OptoNAM-3 is therefore able to promote cell survival in neuron cultures in a photodependent manner.
Mice were housed in the IBENS rodent central facility duly accredited by the French Ministry of Agriculture. All experiments were performed in compliance with French and European regulations on care and protection of laboratory animals (EU Directive 2010/63, French Law 2013–118, February 6, 2013), and were approved by local ethics committees and by the French Ministry of Research and Innovation (authorization numbers #05137.02, APAFIS #28867-2020121814485893). Dissociated cultures of cortical neurons were prepared from mouse embryos at E18 as described previously.[84] After removing meninges, cortices were placed in ice-cold HBSS solution. Cell dissociation was performed individually for cortices of each embryo. Cortices were incubated in 2.5% trypsin at 37 °C for 7 min, rinsed three times with 37 °C phosphate buffer saline, and finally suspended in plating medium (Neurobasal Medium, supplemented with 0.5 mM L-glutamine, 1% B27 supplement, and penicillin/streptomycin). The neurons were further dissociated by trituration, and cells were plated on poly-D-lysine coated coverslips in 24-well culture dishes at a density of 3 × 10^5 cells per well for the excitotoxicity test and that of 1 × 10^5 cells per well for patch clamp experiments. Cultures were incubated at 37 °C in a humidified atmosphere of 5% CO2. Cells were fed by changing 1/2 medium to fresh Neurobasal medium every 4 days. For the excitotoxicity experiments, after 5 days in vitro, growth of non-neuronal cells was halted by a 24 h exposure to FDX ([…] 5-fluoro-2′-deoxyuridine). The cultures were used for experiments after 6 to 14 days in vitro (DIV6–8 for patch clamp experiments and DIV14 for excitotoxicity tests).
Excitotoxicity tests were performed 14 days after the culturing step as described in ref[15]. Just before the experiments, the neuronal medium was changed and the neurons incubated in the external patch recording solution (see above). Two replicates of 24 well plates containing cultured cortical neurons were exposed to the same 4 conditions, in which the following compounds were added to the medium: (1) glycine (10 μM) alone (control); (2) glycine (10 μM) + NMDA (100 μM); (3) glycine (10 μM) + NMDA (100 μM) + 5 μM ifenprodil; and (4) glycine (10 μM) + NMDA (100 μM) + 5 μM trans-OptoNAM-3 (dark). One of the two plates was exposed to UV light (Jena analytic US, UVP Hand-held UV lamp UVGL-58, power ∼1 mW) for 2 min. The two plates were then put back in the 37 °C incubator for 10 min. Agonist exposure was terminated by washing out the exposure solution with conditioned Neurobasal medium, prior to returning the dishes to the incubator for 24 h before assessment of neuronal death.
Overall neuronal cell death was determined 24 h after NMDA exposure by the MTT test. Mitochondrial and cytosolic dehydrogenases of living cells reduce the yellow tetrazolium salt (MTT) to produce a purple formazan dye that can be detected spectrophotometrically.[85] […]

For `c1ccc(/N=N/c2ccc(CCNc3ccncc3)cc2)cc1` [OptoNAM-3, (E)-N-(4-(Phenyldiazenyl)phenethyl)pyridin-4-amine], the neuronal survival (2 min UV (365 nm), normalized to control and NMDA) was 35%, the neuronal survival (dark, normalized to control (100%) and NMDA (0%)) was 50% and the “% of survival, Mean” value (Dark) was 48.677%. For the same compound, the “% of survival, Mean” value (UV) was 36.192%.
